“Also recorded” adds a separate entry of the source. Read-outs that look alike come from different tables or passages of the source. Ends that are not written are not given here. Peptide text beside a SMILES is read from it.
What was measured:
Type in all cases: cell-based
[1] = tested on: Salmonella serotype Typhimurium (ATCC 700408); test: microbe, parasite or virus in culture; details: for bacterial growth (OD600), stand-alone treatment / bacterial growth (OD600), combination: 17-20 h; for bacterial growth (OD600), combination: simultaneously; for MIC: Salmonella
Description: FIG. 1 presents: Salmonella serotype Typhimurium (ATCC 700408), a Multi-Drug Resistant (MDR) strain of bacteria were cultured in the presence of either OMN6 or Kanamycin KAN. […] The bacteria were incubated for 17-20 hours and the growth of the bacteria was continuously monitored via spectrophotometry at 600 nm (OD600). As bacterial growth progresses, OD600 values rise, and where the growth is inhibited OD600 values remain constant.
(§1) The bacteria were incubated for 17-20 hours and the growth of the bacteria was continuously monitored via spectrophotometry at 600 nm (OD600). As bacterial growth progresses, OD600 values rise, and where the growth is inhibited OD600 values remain constant.
FIG. 3A presents: Salmonella serotype Typhimurium (ATCC 700408), a Multi-Drug Resistant (MDR) strain of bacteria were cultured in the presence of OMN6 or AMP.

[2] = tested on: Pseudomonas aeruginosa (ATCC BAA-2110); test: Growth of MDR bacteria monitored by OD600 under peptide, antibiotic or co-treatment; details: FIG. 3B; for bacterial growth (OD600), stand-alone treatment / bacterial growth (OD600), combination: 17-20 h; for bacterial growth (OD600), combination: OMN6 32 μg/ml together with AMP 64 μg/ml, simultaneously
Description: FIG. 3B presents: Pseudomonas aeruginosa (ATCC BAA-2110), a Multi-Drug Resistant (MDR) strain of bacteria were cultured in the presence of either OMN6 or AMP. The bacteria were introduced into solutions of OMN6 (32 μg/ml) and AMP (64 μg/ml) at concentrations that were previously shown to be non-effective when added alone. […] The bacteria were then cultured in the presence of a co-treatment with a combination of OMN6 and AMP, and administered simultaneously, in the same non-effective concentrations described above.
as §1

[3] = tested on: Pseudomonas aeruginosa (ATCC BAA-2110); test: as above; details: AMP alone 128 μg/ml; 17-20 h; FIG. 3B
[4] = tested on: Salmonella serotype Typhimurium (ATCC 700408); test: microbe, parasite or virus in culture; details: for MIC: Salmonella; for bacterial growth (OD600), combination: simultaneously; for bacterial growth (OD600), combination / bacterial growth (OD600), stand-alone treatment: 17-20 h
[5] = OMN6 32 μg/ml together with AMP 128 μg/ml, FIG. 3A

Question: `CC1(C)S[C@@H]2[C@H](NC(=O)[C@H](N)c3ccccc3)C(=O)N2[C@H]1C(=O)O` [AMP, Ampicillin, reference compound] was tested. Which “bacterial growth (OD600), stand-alone treatment” value ([1]; AMP alone 128 μg/ml, FIG. 3A) did it give?
Answer: did not inhibit bacterial growth and did not lead to bacterial death; also recorded: did not inhibit bacterial growth effectively

Question: And the “bacterial growth (OD600), combination” value [1, 5]?
Answer: complete and long-lasting antimicrobial effect; also recorded: powerful antimicrobial effect

Question: And the MIC ([1]; read-out: Minimal Inhibitory Concentration (MIC) of co-treatment, AMP part)?
Answer: 128 µg/mL

Question: What about the “bacterial growth (OD600), stand-alone treatment” value ([2]; AMP alone 64 μg/ml) of the same molecule?
Answer: did not inhibit bacterial growth and did not lead to bacterial death

Question: And the “bacterial growth (OD600), combination” value [2]?
Answer: complete and long-lasting antimicrobial effect; also recorded: powerful antimicrobial effect

Question: And the MIC ([2]; Pseudomonas aeruginosa, ATCCBAA2110, in co-treatment with OMN6 32 μg/ml, read-out: Minimal Inhibitory Concentration (MIC) of co-treatment, AMP part)?
Answer: 64 µg/mL

Question: And the “bacterial growth (OD600), stand-alone treatment” value [3]?
Answer: did not inhibit bacterial growth effectively

Question: With `C[C@@H](O)[C@H]1C(=O)N2C(C(=O)O)=C(SCCN=CN)C[C@H]12` [IPM, Imipenem, reference compound] as the molecule, how does the MIC ([4]; read-out: Minimal Inhibitory Concentration (MIC) of co-treatment, IPM part) read?
Answer: 32 µg/mL

Question: Which MIC ([1]; in co-treatment with OMN6 217 μg/ml, FIG. 1, read-out: Minimal Inhibitory Concentration (MIC) of co-treatment, KAN part) does the source give for `NC[C@H]1O[C@H](O[C@H]2[C@H](O)[C@@H](O[C@H]3O[C@H](CO)[C@@H](O)[C@H](N)[C@H]3O)[C@H](N)C[C@@H]2N)[C@H](O)[C@@H](O)[C@@H]1O` [KAN, Kanamycin, reference compound] here?
Answer: 3.75 µg/mL

Question: With `CC[C@H](C)[C@H](NC(=O)CNC(=O)[C@H](CCC(=O)O)NC(=O)[C@H](CO)NC(=O)[C@@H](NC(=O)[C@H](CCCNC(=N)N)NC(=O)[C@H](CCCCN)NC(=O)[C@H](CCCCN)NC(=O)[C@H](C)NC(=O)[C@H](CO)NC(=O)[C@H](CC(N)=O)NC(=O)[C@H](CCC(=O)O)NC(=O)[C@H](CC(C)C)NC(=O)[C@H](CCCCN)NC(=O)[C@H](CCCCN)NC(=O)[C@H](C)NC(=O)[C@@H](NC(=O)[C@H](CCCCN)NC(=O)[C@H](CO)NC(=O)[C@H](CC(C)C)NC(=O)[C@H](Cc1c[nH]c2ccccc12)NC(=O)[C@H](CO)NC(=O)[C@H](CS)NC(=O)[C@@H](N)CCSC)[C@@H](C)O)[C@@H](C)CC)C(=O)N[C@@H](C)C(=O)N[C@H](C(=O)N[C@@H](C)C(=O)N[C@H](C(=O)N[C@@H](CCC(N)=O)C(=O)NCC(=O)NCC(=O)N1CCC[C@H]1C(=O)N[C@@H](CCCNC(=N)N)C(=O)N[C@@H](CS)C(=O)O)[C@@H](C)CC)[C@@H](C)CC` [OMN11] (H-MCSWLSKTAKKLENSAKKRISEGIAIAIQGGPRC-OH; N-terminus and C-terminus assumed) as the molecule, how does the “bacterial growth (OD600), combination” value ([4]; OMN11 304 μg/ml together with IPM 32 μg/ml, FIG. 2) read?
Answer: complete and long-lasting antimicrobial effect; also recorded: powerful antimicrobial effect

Question: And the “bacterial growth (OD600), stand-alone treatment” value ([4]; OMN11 alone 304 μg/ml, FIG. 2)?
Answer: did not inhibit bacterial growth and did not lead to bacterial death; also recorded: did not inhibit bacterial growth effectively

Question: With `CN(C)[C@@H]1C(O)=C(C(N)=O)C(=O)[C@@]2(O)C(O)=C3C(=O)c4c(O)cccc4[C@@](C)(O)[C@H]3C[C@@H]12` [TET, Tetracycline, reference compound] as the molecule, how does the MIC ([4]; in co-treatment with OMN6 32 μg/ml, FIG. 4, read-out: Minimal Inhibitory Concentration (MIC) of co-treatment, TET part) read?
Answer: 162 µg/mL

Question: “OMN6: modified H. cecropia Cecropin A peptide, MCKWKLFKKIEKVGQNIRDGIIKAGPAVAVVGQATQIAKC (ends and bridges not checked; cysteine pairing not given here)” was tested. Which “bacterial growth (OD600), combination” value [1, 5] did it give?
Answer: complete and long-lasting antimicrobial effect; also recorded: powerful antimicrobial effect

Question: What about the “bacterial growth (OD600), combination” value ([1]; OMN6 217 μg/ml together with KAN 3.75 μg/ml, FIG. 1) of the same molecule?
Answer: complete and long-lasting antimicrobial effect; also recorded: powerful antimicrobial effect

Question: And the “bacterial growth (OD600), stand-alone treatment” value ([1]; OMN6 alone 32 μg/ml, FIG. 3A)?
Answer: did not inhibit bacterial growth and did not lead to bacterial death; also recorded: did not inhibit bacterial growth effectively

Question: What about the “bacterial growth (OD600), stand-alone treatment” value ([1]; OMN6 alone 32 μg/ml, FIG. 4) of the same molecule?
Answer: did not inhibit bacterial growth and did not lead to bacterial death; also recorded: did not inhibit bacterial growth effectively

Question: And the “Minimal Inhibitory Concentration (MIC) of co-treatment, OMN6 part” value (“Minimal Inhibitory Concentration (MIC)” below) ([1]; in co-treatment with AMP 128 μg/ml, FIG. 3A)?
Answer: 32 µg/mL

Question: What about the “Minimal Inhibitory Concentration (MIC)” value ([1]; in co-treatment with KAN 3.75 μg/ml, FIG. 1) of the same molecule?
Answer: 217 µg/mL

Question: And the “bacterial growth (OD600), combination” value [2]?
Answer: complete and long-lasting antimicrobial effect; also recorded: powerful antimicrobial effect

Question: What about the “bacterial growth (OD600), stand-alone treatment” value ([2]; OMN6 alone 32 μg/ml) of the same molecule?
Answer: did not inhibit bacterial growth and did not lead to bacterial death; also recorded: did not inhibit bacterial growth effectively

Question: What about the “Minimal Inhibitory Concentration (MIC)” value ([2]; in co-treatment with AMP 64 μg/ml) of the same molecule?
Answer: 32 µg/mL

Question: And the “bacterial growth (OD600), combination” value ([4]; OMN6 32 μg/ml together with TET 16 μg/ml, FIG. 4)?
Answer: complete and long-lasting antimicrobial effect; also recorded: powerful antimicrobial effect

Question: And the “bacterial growth (OD600), stand-alone treatment” value ([4]; OMN6 alone 217 μg/ml, FIG. 1)?
Answer: did not inhibit bacterial growth and did not lead to bacterial death; also recorded: did not inhibit bacterial growth effectively
